For 75 compounds, EC50, IC50 and outcome results are on record in PubChem BioAssay AID179 (DTP/NCI, 2004).

The structures appear in SMILES notation. Several values for one entry are separate records, joined by “and”; a condition that tells them apart may be missing. Equal entries are not always repeated. Activity calls are given as the source filed them.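 How the source made its calls: active means compounds giving half or more protection of infected cells from virus-caused growth loss, again on retest; inactive means the rest.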

In the experiment the test system is CEM cells HIV-1 protection, formazan growth assay. The experiment in a line: NCI AIDS Antiviral Assay. As to conditions: for IC50: measured here: growth of uninfected CEM cells. The essentials:
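Steps: treat uninfected and HIV-1-infected human CEM cells at five drug levels; quantify growth by soluble formazan; retest any compound reaching 50% protection; classify actives from the retest.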

As usually defined, the EC50 is the concentration that produces a half-maximal response. The IC50 is the concentration at which inhibition is half-maximal. For the compound `COc1ccc(N2C(=O)CC(=O)N(C(=O)CCCCCCCCC(=O)N3C(=O)CC(=O)N(c4ccc(OC)cc4)C3=S)C2=S)cc1`, the EC50 was above 200 µM and the IC50 came out at 102 µM.
As for `CC(=O)Oc1cc(C(F)(F)F)ccc1C(=O)OC1(C)OC(=O)c2ccc(C(F)(F)F)cc2O1` (stereo unspecified), the EC50 is above 200 µM and the IC50 worked out at 41.7 µM.
The like results for `O=C(OCc1ccccc1C1CSCSC1)c1cc(C(=O)OCc2ccccc2C2CSCSC2)c(C(=O)OCc2ccccc2C2CSCSC2)cc1C(=O)OCc1ccccc1C1CSCSC1` were, in that order, above 1.82 µM and above 1.82 µM.
Consider `COc1ccc2ncc(COC(=O)NC3CCCCC3)c(COC(=O)NC3CCCCC3)c2c1`, for which the EC50 is above 174 µM and the IC50 turned out to be 40.7 µM.
For the compound `C/C=C(\C)c1cc(O)c(C)c2c1Oc1cc(O)c(Cl)c(C)c1C(=O)O2`, the outcome was inactive.
With `Cc1nn(C(=O)c2ccc(Cl)cc2)c2c1C(c1ccc(Cl)cc1)SC(N)=N2` (stereo unspecified), the EC50 is above 200 µM and the IC50 was found to be 36.3 µM.
Take `Nc1ccc(-c2nc3ccc(Cc4ccc5nc(-c6ccc(N)cc6)oc5c4)cc3o2)cc1`: the EC50 was 107 µM and the IC50 was above 200 µM.
The matching figures for `O=C(N/N=C/c1cccc([N+](=O)[O-])c1)C(=O)N/N=C/c1cccc([N+](=O)[O-])c1`: above 100 µM and above 100 µM.
The matching figures for `CC1(C)CC(=O)C(/C=N/c2nc(-c3cccc([N+](=O)[O-])c3)cs2)=C(O)C1`: above 200 µM and 8.32 µM.
As for `c1ccc(P2(c3ccccc3)=NSN=S=N2)cc1`, the EC50 is above 200 µM and the IC50 was determined as 74.1 µM.
On to `O=C1CCCCC(=O)Nc2ccccc2-c2ccccc2N1`, for which the result was inactive.
As for `OCCN1CC2CCCC1O2` (stereo unspecified), the EC50 is above 1580 µM and the IC50 is above 1580 µM.
Regarding `CC(=O)NS(=O)(=O)c1ccc(NC(=O)COC(=O)c2cccc3c(=O)c4ccccc4[nH]c23)cc1`, the EC50 is above 363 µM and the IC50 was 245 µM.
Regarding `NC(=O)c1nc2ccccc2nc1Nc1ccc(Cl)cc1Cl`, the EC50 was above 1.58 µM and the IC50 is above 1.58 µM.
With `O=C1[C@H](Cc2ccccc2)C[C@H]2CO[C@H](c3ccccc3)N12`, the EC50 was above 200 µM and the concentration for half-maximal inhibition (IC50) came to 38.9 µM.
Turning to `Cc1cc2nc3nc(N)nc(NS(=O)(=O)c4cc(C)c(Cl)cc4S)n3c2cc1C`, the EC50 is 102 µM and the IC50 was 380 µM.
Regarding `C=C(C)[C@@H]1CC[C@@]2(C)[C@H]1[C@H]1CCC3[C@@]4(C)CC[C@H](O)C(C)(C)[C@@H]4CC[C@@]3(C)[C@]1(C)C[C@@H]2O` (stereo partly specified), the EC50 was above 100 µM and the IC50 turned out to be 66.1 µM.
For the compound `Nc1nc(N)c2nc(-c3ccccc3)c(N)nc2n1`, the result was inactive.
With `O=C1N(c2ccccc2)C2(O)C(=O)c3ccccc3C2(O)N1c1ccccc1` (stereo unspecified), the EC50 was above 676 µM and the IC50 was 110 µM.
On to `O=C1c2scc(-c3ccc(Cl)cc3)c2-n2cccc21`, for which the EC50 is above 200 µM and the IC50 was above 200 µM.
For the compound `Cc1nc(Nc2ccc(Cl)cc2)sc1C(=O)NNC(=S)NN`, the EC50 is above 83.2 µM and the half-inhibitory concentration (IC50) turned out to be 33.1 µM.
Take `CCCC(O)[C@@H](O)c1ccc2c(c1O)C(=O)c1c(OC)cccc1C2=O` (stereo partly specified): the outcome was inactive.
Turning to `CNc1nc(C(N)=O)c(N)s1`, the EC50 was above 200 µM and the IC50 is above 200 µM.
For the compound `O=C(c1ccccc1)C1C(C(=O)c2ccccc2)N1Cc1ccccc1` (stereo unspecified), the EC50 was above 200 µM; the IC50 is 60.3 µM and > 55 µM.
On to `O=C(Nc1ccc(Cl)c(Cl)c1)OCC#CCOC(=O)Nc1ccc(Cl)c(Cl)c1`, for which the EC50 is above 200 µM and the IC50 turned out to be 8.91 µM.
As for `Cc1ccccc1-c1cc(=O)c2cc(C)c(C)c(C(=O)O)c2o1`, the outcome was inactive.
`O=C1C(=O)c2ccccc2C(O)=C1Sc1ccc(Cl)cc1`: the EC50 is above 200 µM and the IC50 worked out at 17.4 µM.
In the case of `C(=C\c1ccc2ccccc2n1)/c1ccc2c(c1)OCO2`, the EC50 is above 200 µM and the IC50 is above 200 µM.
As to `COc1ccc(C(CC(=O)C(C)(C)CN2CCCCC2)SCCS(=O)(=O)O)cc1` (stereo unspecified), the EC50 is above 200 µM and the IC50 was found to be 13.2 µM.
On to `COC(=O)CC12C=CC3(OO1)C(C)(C)CCCC3(C)O2` (stereo unspecified), for which the EC50 was above 200 µM and the half-inhibitory concentration (IC50) was determined as 174 µM.
Consider `CN(C)CC(C)(C)C(/C=C/c1ccccc1)=N\Nc1ccccc1`, for which the result was inactive.
In the case of `COC(=O)c1cc(C#N)[nH]c1-c1cccs1`, the EC50 was above 200 µM and the IC50 worked out at 40.7 µM.
As for `O=C(O)CCc1ccc(O)c(O)c1`, the result was inactive.
Take `Cc1cc(C)c(C(=O)OC(c2ccccc2)C(c2ccccc2)N2CCOCC2)c(C)c1` (stereo unspecified): the result was inactive.
Consider `N#CCC(=O)N1CCCCCCC1`, for which the EC50 was above 1380 µM and the IC50 is above 1380 µM.
As for `COc1ccc2c(c1)CCc1c-2n(CCN(C)C)c2ccc(OC)cc12`, the EC50 was above 200 µM and the IC50 turned out to be 6.17 µM.
The like results for `O=S(=O)(Cc1ccccc1)CS(=O)(=O)Cc1ccccc1` were, in that order, above 77.6 µM and above 77.6 µM.
With `Cn1c(O)c(C=Nc2ccc(Cl)cc2Cl)c(=O)n(C)c1=O`, the EC50 is above 200 µM and the IC50 is above 200 µM.
For `Cc1cc(N(CCC#N)S(=O)(=O)c2ccccc2)ccc1C=Nc1ccc(C(=O)O)cc1`, the EC50 is above 151 µM and the 50% inhibitory concentration (IC50) is 85.1 µM.
Consider `O=C1C(=O)c2ccccc2C(O)=C1C1CCCCC1`, for which the EC50 is above 263 µM and the IC50 was determined as 40.7 µM.
In the case of `CN(C)CCc1c2c(nc3ccccc13)C(=O)c1ccccc1C2=O`, the EC50 was above 200 µM and the IC50 turned out to be 0.933 µM.
Regarding `NNC(=O)C(=O)NN=C(C(Cl)(Cl)CO)C(Cl)(Cl)CO`, the EC50 was above 20.4 µM and the IC50 was above 20.4 µM.
With `C=C1C2Oc3ccccc3C1N(c1ccccc1)O2` (stereo unspecified), the outcome was inactive.
For `CN(NC(=O)/C(=C/c1cc(Cl)cc(Cl)c1O)NC(=O)c1ccccc1)c1cnn(-c2ccccc2)c(=O)c1Cl`, the EC50 was above 200 µM and the IC50 came out at 37.2 µM.
Take `Cc1nc(N)nc(N)c1N1CCN(Cc2ccccc2)CC1`: the EC50 is above 200 µM and the IC50 is 6.92 µM.
Regarding `Cn1[nH]cc2ccc3nc4ccccc4c(=O)c3c21`, the outcome was inactive.
On to `CCCn1c(=O)c2ccccc2[n+]2c(-c3ccc([N+](=O)[O-])cc3)csc12`, for which the EC50 was above 200 µM and the IC50 was above 100 µM.
In the case of `Cc1cccc(C(C)(C)C)c1NC(=O)CCc1n[nH]c(=S)o1`, the EC50 is above 776 µM and the IC50 is 692 µM.
On to `Cc1cnc(SCCN2CCN(C)CC2)nc1-c1cc2ccccc2s1`, for which the EC50 is above 646 µM and the IC50 was 1.29 µM.
Regarding `O=c1[nH]c(=O)n(C2CC(O)C(CO)O2)cc1S` (stereo unspecified), the outcome was inactive.
For the compound `Cn1cc(NC(=O)c2cc(NC(=O)[C@@H]3CCC(N)=N3)c[nH]2)cc1C(=O)NCCC(=N)N`, the outcome was inactive.
As to `CC12c3c4ccc(C=O)c3Oc3ccc(C=O)c(c31)Oc1ccc(C=O)c(c12)O4`, the EC50 is above 25.1 µM and the IC50 turned out to be 13.5 µM.
The like results for `CNC1=C(C)C(=O)C(=O)C([C@H](C)CCC=C(C)C)=C1O` were, in that order, above 200 µM and 6.17 µM.
Regarding `C[N+]12C=CC=C1C(N1CCCC1)c1scc(-c3ccc(Br)cc3)c12` (stereo unspecified), the EC50 is above 200 µM and the IC50 was 10.7 µM.
For `COc1ccc2c(c1O)C(=O)C(CCC(=O)O)CC2` (stereo unspecified), the result was inactive.
As for `O=C(O)c1c[nH]c2c(ccc3[nH]cc(C(=O)O)c(=O)c32)c1=O`, the EC50 is above 200 µM and the IC50 is above 200 µM.
In the case of `O=C(NCCCCCCCCNC(=O)c1cc(-c2ccccc2)nc2ccccc12)c1cc(-c2ccccc2)nc2ccccc12`, the EC50 is above 200 µM and the IC50 was above 200 µM.
Regarding `COc1ccccc1NC(=S)/N=C/c1c(O)cc(C)oc1=O`, the EC50 is above 200 µM and the IC50 was above 200 µM.
Consider `N#CC1(c2ccccc2)CCOCC1`, for which the EC50 is above 501 µM and the IC50 is above 501 µM.
In the case of `O=NNc1ccc(SSc2ccc(NN=O)cc2)cc1`, the EC50 is above 200 µM and the IC50 came to 79.4 µM.
As to `COc1ccc(CNc2cc(=O)n(C)c(=O)[nH]2)cc1`, the EC50 was above 200 µM and the IC50 is above 200 µM.
In the case of `Clc1c2ccccc2nc2c1[nH]c1ccccc12`, the EC50 is above 200 µM and the IC50 was 11.2 µM.
`Cc1ccc(S(=O)(=O)SCCCSS(=O)(=O)c2ccc(C)cc2)cc1`: the EC50 was above 89.1 µM and the IC50 was found to be 15.5 µM.
With `CC(NNC(=O)c1ccncc1)c1ccc(Cl)c(Cl)c1` (stereo unspecified), the EC50 was above 200 µM and the half-maximal inhibitory concentration (IC50) came to 107 µM.
On to `Nc1ccc2c(c1)C1(NC(=O)NC1=O)c1cc(N)ccc1-2`, for which the EC50 is above 200 µM and the IC50 was above 200 µM.
For `CC(=O)[O-].COc1cccc(/C=N\[N-]C(=O)c2ccncc2)c1.[Cu+2].[OH3+].[OH3+].c1cnc2c(c1)ccc1cccnc12`, the EC50 was above 200 µM and the IC50 is 61.7 µM.
`CCCCCCCCCC1CC(=O)Oc2cccc(O)c21` (stereo unspecified): the EC50 was above 25.1 µM and the IC50 was above 25.1 µM.
In the case of `O=c1ccc2ccc(O)c(O)c2o1`, the EC50 was above 1410 µM and the IC50 turned out to be 66.1 µM.
The matching figures for `CCOc1ccccc1Nc1nc(C)c(C(=O)CC(=O)C(=O)Nc2ccccc2)s1`: above 158 µM and 57.5 µM.
Take `CCCC(C(=O)Nc1cccc2[nH]cnc12)C(=O)OCC` (stereo unspecified): the EC50 was above 200 µM and the IC50 amounted to 158 µM.
As for `Cn1c(=O)n2n(c1=O)C1CCC2CC1`, the EC50 is above 1290 µM and the IC50 worked out at 437 µM.
As to `O=C1CCCC1CN1CCCC1` (stereo unspecified), the outcome was inactive.
Consider `Cc1cc(Cl)cc2c1NC(=O)C2(O)C(C(=O)c1ccccc1)c1ccccc1` (stereo unspecified), for which the EC50 was above 91.2 µM and the IC50 is above 91.2 µM.
On to `COc1ccc(-c2oc3cc(OC)ccc3c(=O)c2O)cc1`, for which the EC50 is above 200 µM and the IC50 was above 200 µM.
As to `O=c1cc(NNc2cccc3ccccc23)[nH]c(=O)[nH]1`, the EC50 is above 200 µM and the IC50 worked out at 4.9 µM.
